The source of these data is patent US10111880B2, “Compounds for the treatment of diabetes and disease complications arising from same” (BEN-GURION UNIVERSITY OF THE NEGEV RESEARCH AND DEVELOPMENT …, priority 2013, dated 2018).

Molecules are shown by their SMILES. “Also recorded” adds a separate entry of the source.

Assay [1] has as its system islets isolated from ICR mice. The experiment in a line: γ-H2AX staining in isolated islet cells treated with STZ. The conditions noted are these: STZ 1.5 mM; AGS-500 50 nM, 100 nM, 250 nM; 4 hours. The assay is classed as cell-based, mouse. Here is the method:
Islets were isolated from 8-10-week-old ICR mice. 30 islets in each group were treated with STZ (1.5 mM) and DMSO or AGS-500 in various concentrations (50 nM, 100 nM, 250 nM) for 4 hours. After 4 h incubation, the islets were enzymatically separated to single cells, cyto-spun and stained with γ-H2AX-specific antibody (A; representative picture—γ-H2AX (light grey), Dapi (dark grey)). Magnification: ×60.
The treatment of rats with AGS-compounds maintained a large β-cell mass in STZ-treated rats. In order to determine whether β-cell mass preservation was a result islet cell protection from STZ-induced DNA damage, γ-H2AX staining was assessed. Phosphorylated gamma H2AX (γ-H2AX) is essential for recognition and repair of DNA double strand breaks. H2AX histone becomes rapidly phosphorylated at its carboxyl terminus to form the so-called γ-H2AX at double strand break sites.
Islets were isolated from 8-10-week-old ICR mice and were treated with STZ (1.5 mM) and DMSO or AGS-500 in various concentrations (50 nM, 100 nM, 250 nM) for 4 hours. After a 4 h incubation, the islets were separated into single cells, cyto-spun, and stained with anti-γ-H2AX-specific antibody for the detection of DNA double strand breaks (FIG. 6).

For assay [2], the system named is STZ-induced diabetic Wistar rats. Description: Blood glucose in STZ-induced diabetic rats treated with AGS-500. The assay is classed as in vivo, rat. Here is the method:
The effect of compounds of the present invention on diabetes per se, and disease complications arising as a result of diabetes was evaluated. Streptozotocin treatment of mice and rats are known in vivo diabetes models. Intraperitoneal injections of reduced STZ concentrations (35 mg/kg) was evaluated in mice and rats, in order to determine whether in a model causing only partial damage to pancreatic islet β-cells, whether the compounds of this invention would be helpful. Eight-week-old Wistar female rats received two doses of STZ administered intraperitoneally (60 or 35 mg/kg in 0.1M Citrate buffer; at 5-day intervals), which induced diabetes in all animal, since not all rats that received a single injection of STZ became diabetic in this model. These animals were then treated every 3 days with a subcutaneous injection of compound AGS-500 (6 mg/kg) for from 2-5 weeks to generate a Type I Diabetes phenotype. Blood glucose levels were monitored every 3 days in the rats. Ten weeks after the beginning of this study, each mice group was divided into 2 sub-groups, one of each also received insulin (4 U\Kg) every 2 days, except for the non-diabetic sub-groups. Acetic acid (1%) served as the vehicle control. Diabetes was diagnosed when non-fasting blood glucose levels were above 200 mg/dl. Extension of these studies included treatment of rats divided into 4 groups, as follows: 3 groups received 2 injections of STZ (35 mg/kg) at day 0′ and day 15′, serving as the diabetic group, while the non-diabetic group received 2 injections of Citrate buffer in accordance with the stated schedule. One diabetic group was administered AGS-500 intraperitoneally (6 mg/kg) every 12 hours (12 h) starting at day 4′, the second diabetic group received DMSO every 12 h starting at day 4′, and a third diabetic group was not injected with either AGS-500 or DMSO.

Assay [3] relates to pancreatic β-cells. The experiment in a line: Insulin immuno-histochemical and immuno-fluorescence staining of pancreas, β-cell mass in STZ-injected rats. The assay is classed as in vivo, rat. Conditions: FIG. 5A, 5B, 5D. How it is done: Rats were treated as described in Example 1, pancreata were removed fixed in 4% formalin, and embedded in paraffin for immuno-histochemical and immuno-fluorescence staining using a specific anti-insulin antibody and serial histopathologic sections were prepared. […] Brown staining in FIG. 5A indicates insulin staining positivity by immunohistochemistry, and red staining (FIGS. 5B and 5C) indicates insulin staining positivity by immunofluorescence, blue cellular staining was effected with Dapi). The Cell density and density of insulin staining per area was measured using “Image J” software (FIGS. 5D and 5E). The results are presented as mean±S.E.; n=4. ***p<0.005.

[4] abbreviates: STZ rats, AGS-500 6 mg/kg s.c. every 3 days.

`CC(c1cc(Br)c(O)c(Br)c1)(c1cc(Br)c(O)c(Br)c1)c1cc(Br)c(O)c(Br)c1` [AGS-500, 1,1,1-tris (4-hydroxy-3,5-dibromo-phenyl)-ethane]: the “number of γ-H2AX-stained cells” value in assay [1] was “dose-dependent decrease in the number of γ-H2AX-stained cells; also recorded: Reduced γ-H2AX Staining”. Further, in assay [2] (setting [4]), the Blood glucose levels was 275 ± 18 mg/dL and the “effect on the rat hyperglycemic state” value is reported as “no effect”. Moreover, the “blood glucose levels of non-fasting animals” value in assay [2] (rats, STZ 35 mg/kg day 0 and 15, AGS-500 6 mg/kg i.p. every 12 h from day 4, FIG. 1A) was “No reduction”. For the same compound, in assay [2] (rats, STZ 35 mg/kg day 0 and 15, AGS-500 6 mg/kg i.p. every 12 h from day 4, FIG. 1B), the “fasting glucose levels (following 12 h fast)” value is on record as “significant reduction of blood glucose levels to normal; also recorded: Reduction in Blood Glucose Level”. Further, in assay [3], the “β-cell mass in the pancreas of STZ-injected rats” value is “significantly larger β-cell mass; also recorded: preserved β-cell Mass”.
